Source: US7579469B2, “Glucocorticoid mimetics, methods of making them, pharmaceutical compositions, and uses thereof” (Boehringer Ingelheim Pharmaceuticals, Inc., priority 2003, dated 2009)

Target: T1, human glucocorticoid receptor (GR) complex (Homo sapiens, UniProt P04150)
T1 construct: made in house; host or cells: insect expression system (baculovirus lysate)
T1 sequence (P04150 1-777): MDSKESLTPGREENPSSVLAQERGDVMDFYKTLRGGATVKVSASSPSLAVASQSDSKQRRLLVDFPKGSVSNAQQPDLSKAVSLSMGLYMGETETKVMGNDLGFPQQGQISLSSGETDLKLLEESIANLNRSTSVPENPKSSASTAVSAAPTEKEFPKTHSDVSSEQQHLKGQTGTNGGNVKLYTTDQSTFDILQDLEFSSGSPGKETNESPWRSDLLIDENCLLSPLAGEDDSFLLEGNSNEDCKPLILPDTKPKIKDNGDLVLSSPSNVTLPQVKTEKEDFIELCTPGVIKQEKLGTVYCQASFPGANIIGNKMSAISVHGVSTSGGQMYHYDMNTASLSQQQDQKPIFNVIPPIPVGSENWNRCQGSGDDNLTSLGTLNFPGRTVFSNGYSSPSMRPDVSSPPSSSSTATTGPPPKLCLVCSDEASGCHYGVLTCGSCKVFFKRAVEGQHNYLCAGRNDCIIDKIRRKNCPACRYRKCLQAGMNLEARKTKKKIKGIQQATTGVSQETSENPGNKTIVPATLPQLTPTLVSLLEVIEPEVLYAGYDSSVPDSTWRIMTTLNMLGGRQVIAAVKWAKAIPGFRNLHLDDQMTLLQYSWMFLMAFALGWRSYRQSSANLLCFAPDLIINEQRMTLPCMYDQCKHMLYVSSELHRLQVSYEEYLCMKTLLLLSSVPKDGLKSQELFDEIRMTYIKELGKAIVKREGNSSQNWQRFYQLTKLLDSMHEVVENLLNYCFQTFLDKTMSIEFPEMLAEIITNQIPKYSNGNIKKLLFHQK
Experiment: Glucocorticoid receptor competitive binding assay (fluorescence polarization)
Settings: competition with TAMRA-labeled dexamethasone
Protocol: Compounds of the invention were evaluated for binding to the steroid receptor by a fluorescence polarization competitive binding assay.
A. Glucocorticoid Receptor Competitive Binding Assay
Step 1. Characterization of the Fluorescent Probe
The wavelengths for maximum excitation and emission of the fluorescent probe should first be measured. An example of such a probe is rhodamine (TAMRA)-labeled dexamethasone.
The affinity of the probe for the steroid receptor was then determined in a titration experiment. The fluorescence polarization value of the probe in assay buffer was measured on an SLM-8100 fluorometer using the excitation and emission maximum values described above. Aliquots of expression vector lysate were added and fluorescence polarization was measured after each addition until no further change in polarization value was observed. Non-linear least squares regression analysis was used to calculate the dissociation constant of the probe from the polarization values obtained for lysate binding to the probe.
Step 2. Screening for Inhibitors of Probe Binding
This assay uses fluorescence polarization (FP) to quantitate the ability of test compounds to compete with tetramethyl rhodamine (TAMRA)-labeled dexamethasone for binding to a human glucocorticoid receptor (GR) complex prepared from an insect expression system. The assay buffer was: 10 mM TES, 50 mM KCl, 20 mM Na2MoO4.2H20, 1.5 mM EDTA, 0.04% w/v CHAPS, 10% v/v glycerol, 1 mM dithiothreitol, pH 7.4. Test compounds were dissolved to 1 mM in neat DMSO and then further diluted to 10× assay concentration in assay buffer supplemented with 10% v/v DMSO. Test compounds were serially diluted at 10× assay concentrations in 10% DMSO-containing buffer in 96-well polypropylene plates. Binding reaction mixtures were prepared in 96-well black Dynex microtiter plates by sequential addition of the following assay components to each well: 15 μL of 10× test compound solution, 85 μL of GR-containing baculovirus lysate diluted 1:170 in assay buffer, and 50 μL of 15 nM TAMRA-labeled dexamethasone. Positive controls were reaction mixtures containing no test compound; negative controls (blanks) were reaction mixtures containing 0.7 μM to 2 μM dexamethasone. […] IC50 values were determined by iterative non-linear curve fitting of the FP signal data to a 4-parameter logistic equation.

Row | SMILES | activity in the GR binding assay
1 | CC(C)(CC(O)(Cn1ccc(=O)c2ccccc21)C(F)(F)F)c1cc(-c2cccnc2)ccc1O (centres unmarked) [1-[2-Hydroxy-4-(2-hydroxy-5-pyridin-3-ylphenyl)-4-methyl-2-trifluoromethylpentyl]-1H-quinolin-4-one] | potent activity
2 | CC(C)(CC(O)(Cn1ccc(=O)c2ccccc21)C(F)(F)F)c1cc(-c2ccsc2)ccc1O (centres unmarked) [1-[2-Hydroxy-4-(2-hydroxy-5-thiophen-3-ylphenyl)-4-methyl-2-trifluoromethylpentyl]-1H-quinolin-4-one] | potent activity
3 | COc1ccc(C)cc1C(C)(C)CC(O)(Cn1ccc(=O)c2ccccc21)C(F)(F)F (centres unmarked) [1-[2-Hydroxy-4-(2-methoxy-5-methylphenyl)-4-methyl-2-trifluoromethylpentyl]-1H-quinolin-4-one] | potent activity
4 | COc1ccc(CN2CCOCC2)cc1C(C)(C)CC(O)(Cn1ccc(=O)c2ccccc21)C(F)(F)F (centres unmarked) [1-[2-Hydroxy-4-(2-methoxy-5-morpholin-4-ylmethylphenyl)-4-methyl-2-trifluoromethylpentyl]-1H-quinolin-4-one] | potent activity
5 | COc1ccc(-c2cccs2)cc1C(C)(C)CC(O)(Cn1ccc(=O)c2ccccc21)C(F)(F)F (centres unmarked) [1-[2-Hydroxy-4-(2-methoxy-5-thiophen-2-ylphenyl)-4-methyl-2-trifluoromethylpentyl]-1H-quinolin-4-one] | potent activity
6 | CC(C)(CC(O)(Cn1ccc(=O)c2ccccc21)C(F)(F)F)c1cc(-c2ccccc2)ccc1O (centres unmarked) [1-[2-Hydroxy-4-(4-hydroxybiphenyl-3-yl)-4-methyl-2-trifluoromethylpentyl]-1H-quinolin-4-one] | potent activity
7 | COc1ccc(-c2ccccc2)cc1C(C)(C)CC(O)(Cn1ccc(=O)c2ccccc21)C(F)(F)F (centres unmarked) [1-[2-Hydroxy-4-(4-methoxybiphenyl-3-yl)-4-methyl-2-trifluoromethylpentyl]-1H-quinolin-4-one] | potent activity
8 | COc1ccc(CO)cc1C(C)(C)CC(O)(Cn1ccc(=O)c2ccccc21)C(F)(F)F (centres unmarked) [1-[2-Hydroxy-4-(5-hydroxymethyl-2-methoxyphenyl)-4-methyl-2-trifluoromethylpentyl]-1H-quinolin-4-one] | potent activity
9 | C[S+]([O-])c1cc2c(c(C(C)(C)CC(O)(Cn3ccc(=O)c4ccccc43)C(F)(F)F)c1)OCC2 (centres unmarked) [1-[2-Hydroxy-4-(5-methanesulfinyl-2,3-dihydrobenzofuran-7-yl)-4-methyl-2-trifluoromethylpentyl]-1H-quinolin-4-one] | potent activity
10 | CC(C)(CC(O)(Cn1ccc(=O)c2ncccc21)C(F)(F)F)c1cc(S(C)(=O)=O)cc2c1OCC2 (centres unmarked) [1-[2-Hydroxy-4-(5-methanesulfonyl-2,3-dihydrobenzofuran-7-yl)-4-methyl-2-trifluoromethylpentyl]-1H-[1,5]naphthyridin-4-one] | potent activity
11 | Cc1cn(CC(O)(CC(C)(C)c2cc(S(C)(=O)=O)cc3c2OCC3)C(F)(F)F)c2ccccc2c1=O (centres unmarked) [1-[2-Hydroxy-4-(5-methanesulfonyl-2,3-dihydrobenzofuran-7-yl)-4-methyl-2-trifluoromethylpentyl]-3-methyl-1H-quinolin-4-one] | potent activity
12 | CSc1cc2c(c(C(C)(C)CC(O)(Cn3ccc(=O)c4ccccc43)C(F)(F)F)c1)OCC2 (centres unmarked) [1-[2-Hydroxy-4-methyl-4-(5-methylsulfanyl-2,3-dihydrobenzofuran-7-yl)-2-trifluoromethylpentyl]-1H-quinolin-4-one] | potent activity
13 | CC1(CC(O)(Cn2ccc(=O)c3ccccc32)C(F)(F)F)CCOc2ccc(F)cc21 (centres unmarked) [1-[3,3,3-Trifluoro-2-(6-fluoro-4-methylchroman-4-ylmethyl)-2-hydroxypropyl]-1H-quinolin-4-one] | potent activity
14 | Cc1cn(CC(O)(CC(C)(C)c2cccc3c2OCC3)C(F)(F)F)c(CO)c(C)c1=O (centres unmarked) [1-[4-(2,3-Dihydrobenzofuran-7-yl)-2-hydroxy-4-methyl-2-trifluoromethylpentyl]-2-hydroxymethyl-3,5-dimethyl-1H-pyridin-4-one] | potent activity
15 | Cc1cn(CC(O)(CC(C)(C)c2cccc3c2OCC3)C(F)(F)F)c2ccccc2c1=O (centres unmarked) [1-[4-(2,3-Dihydrobenzofuran-7-yl)-2-hydroxy-4-methyl-2-trifluoromethylpentyl]-3-methyl-1H-quinolin-4-one] | potent activity
16 | CC(C)(CC(O)(Cn1ccc(=O)c2ccccc21)C(F)(F)F)c1cccc(C2OCCCO2)c1 (centres unmarked) [1-[4-(3-[1,3]Dioxan-2-ylphenyl)-2-hydroxy-4-methyl-2-trifluoromethylpentyl]-1H-quinolin-4-one] | potent activity

More lines, now with the values ahead:

Row | activity in the GR binding assay | SMILES
17 | potent activity | CC(C)(CC(O)(Cn1ccc(=O)c2ccccc21)C(F)(F)F)c1cccc(O)c1 (centres unmarked) [1-[2-Hydroxy-4-(3-hydroxyphenyl)-4-methyl-2-trifluoromethylpentyl]-1H-quinolin-4-one]
18 | potent activity | COc1cccc(C(C)(C)CC(O)(Cn2ccc(=O)c3ccccc32)C(F)(F)F)c1 (centres unmarked) [1-[2-Hydroxy-4-(3-methoxyphenyl)-4-methyl-2-trifluoromethylpentyl]-1H-quinolin-4-one]
19 | potent activity | CCOc1ccc(F)cc1C(C)(C)CC(O)(Cn1ccc(=O)c2ccccc21)C(F)(F)F (centres unmarked) [1-[4-(2-Ethoxy-5-fluorophenyl)-2-hydroxy-4-methyl-2-trifluoromethylpentyl]-1H-quinolin-4-one]
20 | potent activity | CC(=O)c1cccc(C(C)(C)CC(O)(Cn2ccc(=O)c3ccccc32)C(F)(F)F)c1 (centres unmarked) [1-[4-(3-Acetylphenyl)-2-hydroxy-4-methyl-2-trifluoromethylpentyl]-1H-quinolin-4-one]
21 | potent activity | CC(C)(CC(O)(Cn1ccc(=O)c2ccccc21)C(F)(F)F)c1cccc(Br)c1 (centres unmarked) [1-[4-(3-Bromophenyl)-2-hydroxy-4-methyl-2-trifluoromethylpentyl]-1H-quinolin-4-one]
22 | potent activity | CC(C)(CC(O)(Cn1ccc(=O)c2ccccc21)C(F)(F)F)c1ccc(O)c(F)c1 (centres unmarked) [1-[4-(3-Fluoro-4-hydroxyphenyl)-2-hydroxy-4-methyl-2-trifluoromethylpentyl]-1H-quinolin-4-one]
23 | potent activity | COc1ccc(C(C)(C)CC(O)(Cn2ccc(=O)c3ccccc32)C(F)(F)F)cc1F (centres unmarked) [1-[4-(3-Fluoro-4-methoxyphenyl)-2-hydroxy-4-methyl-2-trifluoromethylpentyl]-1H-quinolin-4-one]
24 | potent activity | Cc1ccc(C(C)(C)CC(O)(Cn2ccc(=O)c3ccccc32)C(F)(F)F)cc1F (centres unmarked) [1-[4-(3-Fluoro-4-methylphenyl)-2-hydroxy-4-methyl-2-trifluoromethylpentyl]-1H-quinolin-4-one]
25 | potent activity | CC(C)(CC(O)(Cn1ccc(=O)c2ccccc21)C(F)(F)F)c1cccc(F)c1 (centres unmarked) [1-[4-(3-Fluorophenyl)-2-hydroxy-4-methyl-2-trifluoromethylpentyl]-1H-quinolin-4-one]
26 | potent activity | CC(C)(CC(O)(Cn1ccc(=O)c2ccccc21)C(F)(F)F)c1ccc(F)cc1 (centres unmarked) [1-[4-(4-Fluorophenyl)-2-hydroxy-4-methyl-2-trifluoromethylpentyl]-1H-quinolin-4-one]
